Test results as given in patent US11306092B2, “Amino indole compounds useful as TLR inhibitors” (BRISTOL-MYERS SQUIBB COMPANY, priority 2017, dated 2022).

Experiments:
human TLR7 = target: T1, human TLR7 (Homo sapiens, UniProt Q9NYK1); test: TLR7 inhibition reporter assay (HEK-Blue SEAP reporter); assay type: cell-based; conditions: HEK-Blue cells overexpressing human TLR7; gardiquimod 7.5 μM; 22 hour incubation
T1 construct: host or cells: HEK-Blue cells
T1 sequence (Q9NYK1 27-1049): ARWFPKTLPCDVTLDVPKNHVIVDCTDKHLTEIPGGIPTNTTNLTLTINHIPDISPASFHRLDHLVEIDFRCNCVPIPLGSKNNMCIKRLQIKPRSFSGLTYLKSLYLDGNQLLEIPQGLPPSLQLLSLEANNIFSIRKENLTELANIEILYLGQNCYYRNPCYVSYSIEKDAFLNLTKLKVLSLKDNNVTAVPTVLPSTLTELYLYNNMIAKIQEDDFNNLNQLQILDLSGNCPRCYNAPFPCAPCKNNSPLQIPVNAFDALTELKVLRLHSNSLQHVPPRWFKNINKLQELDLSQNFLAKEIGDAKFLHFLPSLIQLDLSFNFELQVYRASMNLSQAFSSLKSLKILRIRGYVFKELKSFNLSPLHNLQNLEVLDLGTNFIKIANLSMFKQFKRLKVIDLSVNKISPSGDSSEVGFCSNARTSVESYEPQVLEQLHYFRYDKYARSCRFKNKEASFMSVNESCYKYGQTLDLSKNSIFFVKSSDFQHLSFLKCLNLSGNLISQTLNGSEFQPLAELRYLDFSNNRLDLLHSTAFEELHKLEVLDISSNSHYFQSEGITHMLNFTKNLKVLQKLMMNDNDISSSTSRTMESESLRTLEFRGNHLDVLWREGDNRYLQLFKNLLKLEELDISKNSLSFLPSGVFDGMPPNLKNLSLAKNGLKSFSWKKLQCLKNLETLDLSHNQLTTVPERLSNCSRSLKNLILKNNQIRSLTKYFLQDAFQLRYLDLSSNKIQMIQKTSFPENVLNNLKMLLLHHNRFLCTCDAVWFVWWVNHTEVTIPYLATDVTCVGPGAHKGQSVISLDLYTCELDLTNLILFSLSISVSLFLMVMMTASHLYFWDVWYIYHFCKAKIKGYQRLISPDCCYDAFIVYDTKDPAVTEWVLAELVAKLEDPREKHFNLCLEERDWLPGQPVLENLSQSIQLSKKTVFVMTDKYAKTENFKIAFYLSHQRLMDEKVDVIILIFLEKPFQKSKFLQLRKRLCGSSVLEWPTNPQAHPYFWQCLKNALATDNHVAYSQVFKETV
Method: (§1) TLR7/8/9 Inhibition Reporter Assays
(§2) HEK-Blue™-cells (Invivogen) overexpressing human TLR7, TLR8 or TLR9 receptors were used for screening inhibitors of these receptors using an inducible SEAP (secreted embryonic alkaline phosphatase) reporter gene under the control of the IFN-β minimal promoter fused to five NF-κB and AP-1-binding sites. Briefly, cells are seeded into Greiner 384 well plates (15000 cells per well for TLR7, 20,000 for TLR8 and 25,000 for TLR9) and then treated with test compounds in DMSO to yield a final dose response concentration range of 0.05 nM-50 μM. After a 30 minute compound pre-treatment at room temperature, the cells are then stimulated with a TLR7 ligand (gardiquimod at a final concentration of 7.5 μM), TLR8 ligand (R848 at a final concentration of 15.9 μM) or TLR9 ligand (ODN2006 at a final concentration of 5 nM) to activate NF-κB and AP-1 which induce the production of SEAP. After a 22 hour incubation at 37° C., 5% CO2, SEAP levels are determined with the addition of HEK-Blue™ Detection reagent (Invivogen), a cell culture medium that allows for detection of SEAP, according to manufacturer's specifications. The percent inhibition is determined as the % reduction in the HEK-Blue signal present in wells treated with agonist plus DMSO alone compared to wells treated with a known inhibitor.

human TLR9 = target: T2, human TLR9 (Homo sapiens, UniProt Q9NR96); test: TLR9 inhibition reporter assay (HEK-Blue SEAP reporter); assay type: cell-based; conditions: HEK-Blue cells overexpressing human TLR9; ODN2006 5 nM; 22 hour incubation
T2 construct: host or cells: HEK-Blue cells
T2 sequence (Q9NR96 26-1032): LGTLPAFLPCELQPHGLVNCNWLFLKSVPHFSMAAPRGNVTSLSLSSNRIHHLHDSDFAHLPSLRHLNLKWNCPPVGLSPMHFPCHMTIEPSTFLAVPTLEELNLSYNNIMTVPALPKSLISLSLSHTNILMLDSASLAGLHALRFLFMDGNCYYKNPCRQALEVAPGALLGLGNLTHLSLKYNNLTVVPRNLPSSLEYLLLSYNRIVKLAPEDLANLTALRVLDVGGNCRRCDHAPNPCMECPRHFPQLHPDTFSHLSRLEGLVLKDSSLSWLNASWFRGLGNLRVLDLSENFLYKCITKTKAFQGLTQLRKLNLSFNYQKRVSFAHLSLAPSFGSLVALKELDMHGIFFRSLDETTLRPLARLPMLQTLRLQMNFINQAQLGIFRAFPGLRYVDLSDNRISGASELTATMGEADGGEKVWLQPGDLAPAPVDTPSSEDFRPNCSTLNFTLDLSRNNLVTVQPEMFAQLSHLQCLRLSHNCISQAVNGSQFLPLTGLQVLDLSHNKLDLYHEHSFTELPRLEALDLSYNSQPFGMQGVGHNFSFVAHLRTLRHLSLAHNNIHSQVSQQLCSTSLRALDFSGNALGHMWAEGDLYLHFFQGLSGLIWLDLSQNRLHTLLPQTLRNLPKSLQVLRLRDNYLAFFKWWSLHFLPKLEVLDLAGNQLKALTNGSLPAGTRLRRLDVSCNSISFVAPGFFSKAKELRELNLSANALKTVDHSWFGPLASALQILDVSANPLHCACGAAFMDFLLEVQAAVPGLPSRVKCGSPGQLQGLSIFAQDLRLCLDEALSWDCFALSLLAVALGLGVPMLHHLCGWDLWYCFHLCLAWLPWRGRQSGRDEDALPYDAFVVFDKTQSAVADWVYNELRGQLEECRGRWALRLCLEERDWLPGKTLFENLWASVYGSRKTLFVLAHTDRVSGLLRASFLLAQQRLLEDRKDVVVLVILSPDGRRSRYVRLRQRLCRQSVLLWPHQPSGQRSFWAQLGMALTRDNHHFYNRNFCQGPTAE
Method: as §1, §2

SMILES	IC50 (human TLR7) [µM]	IC50 (human TLR9) [µM]
COc1ccc(-c2[nH]c3ccc(NC4CCC(N5CCC(N(C)C)CC5)CC4)cc3c2C(C)C)cc1OC (centres unmarked) [Example 46, 2-(3,4-dimethoxyphenyl)-N-(4-(4-(dimethylamino)piperidin-1-yl)cyclohexyl)-3-isopropyl-H-indol-5-amine]	1.05	0.817
COc1ccc(-c2[nH]c3ccc(NC4CCC(N(C)CCCN(C)C)CC4)cc3c2C(C)C)cc1OC (centres unmarked) [Example 42, N1-(2-(3,4-dimethoxyphenyl)-3-isopropyl-1H-indol-5-yl)-N4-(3-(dimethylamino)propyl)-N4-methylcyclohexane-1,4-diamine]	0.106	1.01
COc1ccc(-c2[nH]c3ccc(NC4CCC(N5CCN(C(C)(C)C)CC5)CC4)cc3c2C(C)C)cc1OC (centres unmarked) [Example 50, N-(4-(4-(tert-butyl)piperazin-1-yl)cyclohexyl)-2-(3,4-dimethoxyphenyl)-3-isopropyl-1H-indol-5-amine]	0.431	0.561
CCc1c(-c2ccc(OC)c(OC)c2)[nH]c2ccc(N3CCCN(C4CCN(C)CC4)CC3)cc12 [Example 179, 2-(3,4-dimethoxyphenyl)-3-ethyl-5-(4-(1-methylpiperidin-4-yl)-1,4-diazepan-1-yl)-1H-indole]	0.831	1.1
COc1ccc(-c2[nH]c3ccc(NC4CCC(N5CCN(C(C)=O)CC5)CC4)cc3c2C(C)C)cc1OC (single isomer, unassigned) [Example 45, 1-(4-(4-((2-(3,4-dimethoxyphenyl)-3-isopropyl-1H-indol-5-yl)amino)cyclohexyl)piperazin-1-yl)ethan-1-one]	0.349	1.27
COc1ccc(-c2[nH]c3ccc(N4CCC(N5CCN(Cc6ccc(C)cc6)CC5)CC4)cc3c2C(C)C)cc1OC [Example 101, 2-(3,4-dimethoxyphenyl)-3-isopropyl-5-(4-(4-(4-methylbenzyl)piperazin-1-yl)piperidin-1-yl)-1H-indole]	1.35	1.9
COc1ccc(-c2[nH]c3ccc(NC4CCC(N5CCN(CCN6CCCC6)CC5)CC4)cc3c2C(C)C)cc1OC (centres unmarked) [Example 64, 2-(3,4-dimethoxyphenyl)-3-isopropyl-N-(4-(4-(2-(pyrrolidin-1-yl)ethyl)piperazin-1-yl)cyclohexyl)-1H-indol-5-amine]	0.357	0.555
CCc1c(-c2ccc(OC)c(OC)c2)[nH]c2ccc(N3CCC(OC4CCN(CC)CC4)CC3)cc12 [Example 188, 2-(3,4-dimethoxyphenyl)-3-ethyl-5-(4-((1-ethylpiperidin-4-yl)oxy)piperidin-1-yl)-1H-indole]	0.161	0.986
COc1ccc(-c2[nH]c3ccc(NC4CCC(N5CCN(C(C)(C)C)CC5)CC4)cc3c2C(C)C)cc1OC (centres unmarked) [Example 49, N-(4-(4-(tert-butyl)piperazin-1-yl)cyclohexyl)-2-(3,4-dimethoxyphenyl)-3-isopropyl-1H-indol-5-amine]	0.538	0.512
CCc1c(-c2ccc(OC)c(OC)c2)[nH]c2ccc(NC3CCN(C4CCN(C)CC4)CC3)cc12 [Example 125, 2-(3,4-dimethoxyphenyl)-3-ethyl-N-(1′-methyl-[1,4′-bipiperidin]-4-yl)-1H-indol-5-amine]	0.376	0.758
COc1ccc(-c2[nH]c3ccc(NC4CCC(N5CCN(CC(C)C)CC5)CC4)cc3c2C(C)C)cc1OC (centres unmarked) [Example 53, 2-(3,4-dimethoxyphenyl)-N-(4-(4-isobutylpiperazin-1-yl)cyclohexyl)-3-isopropyl-1H-indol-5-amine]	0.659	1.21
COc1ccc(-c2[nH]c3ccc(NC4CCC(N5CCN(Cc6ccc(C)cc6)CC5)CC4)cc3c2C(C)C)cc1OC (centres unmarked) [Example 65, 2-(3,4-dimethoxyphenyl)-3-isopropyl-N-(4-(4-(4-methylbenzyl)piperazin-1-yl)cyclohexyl)-1H-indol-5-amine]	1.18	0.588
COc1ccc(-c2[nH]c3ccc(N4CCC(C5CCN(Cc6ccsc6)CC5)CC4)cc3c2C(C)C)cc1OC [Example 98, 2-(3,4-dimethoxyphenyl)-3-isopropyl-5-(1′-(thiophen-3-ylmethyl)-[4, 4′-bipiperidin]-1-yl)-1H-indole]	0.181	1.52
CCc1c(-c2ccc(OC)c(OC)c2)[nH]c2ccc(N3CCC(OC4CCNCC4)CC3)cc12 [Example 132, 2-(3,4-dimethoxyphenyl)-3-ethyl-5-(4-(piperidin-4-yloxy)piperidin-1-yl)-1H-indole]	0.25	1.05
COc1ccc(-c2[nH]c3ccc(NC4CCC(N5CCN(C6CCCC6)CC5)CC4)cc3c2C(C)C)cc1OC (centres unmarked) [Example 58, N-(4-(4-cyclopentylpiperazin-1-yl)cyclohexyl)-2-(3,4-dimethoxyphenyl)-3-isopropyl-1H-indol-5-amine]	0.351	1.08
COc1ccc(-c2[nH]c3ccc(N4CCC(N5CCN(C(C)=O)CC5)CC4)cc3c2C(C)C)cc1OC [Example 82, 1-(4-(1-(2-(3,4-dimethoxyphenyl)-3-isopropyl-1H-indol-5-yl)piperidin-4-yl)piperazin-1-yl)ethan-1-one]	0.114	6.56
COc1ccc(-c2[nH]c3ccc(NC4CCC(N5CCN(CCN6CCCC6)CC5)CC4)cc3c2C(C)C)cc1OC (centres unmarked) [Example 63, 2-(3,4-dimethoxyphenyl)-3-isopropyl-N-(4-(4-(2-(pyrrolidin-1-yl)ethyl)piperazin-1-yl)cyclohexyl)-1H-indol-5-amine]	0.257	0.405
COc1ccc(-c2[nH]c3ccc(NC4CCC(N5CCN(CC(C)C)CC5)CC4)cc3c2C(C)C)cc1OC (centres unmarked) [Example 52, 2-(3,4-dimethoxyphenyl)-N-(4-(4-isobutylpiperazin-1-yl)cyclohexyl)-3-isopropyl-1H-indol-5-amine]	0.403	1.58
CCc1c(-c2ccc(OC)c(OC)c2)[nH]c2ccc(N3CCN(CCNC)CC3)cc12 [Example 140, 2-(4-(2-(3,4-dimethoxyphenyl)-3-ethyl-1H-indol-5-yl)piperazin-1-yl)-N-methylethan-1-amine]	0.235	3.94
